Experimental data taken from patent publication US20070265288A1 (priority 2004, published 2007).
Read-outs that look alike come from different tables or passages of the source.

Key:
[1] = Forced degradation (stress) study of imatinib mesylate alpha form; assay type: physicochemical
[2] = Hygroscopicity of the crystal form according to the invention; assay type: physicochemical
[3] = alpha form obtained by process of WO 99/03854; cited from earlier work
[4] = 60° C. for 48 hours, listed as RD/IMT-4/31
[5] = 60° C. for 48 hours, listed as RD/IMT-4/34
[6] = 105° C. for 12 hours, listed as RD/IMT-4/31
[7] = 105° C. for 12 hours, listed as RD/IMT-4/34
[8] = As such (i.e. no stress condition)
[9] = As such (i.e. no stress condition), listed as RD/IMT-4/31
[10] = As such (i.e. no stress condition), listed as RD/IMT-4/34
[11] = UV −45° C. 75 RH for 12 hours, listed as RD/IMT-4/31
[12] = UV −45° C. 75 RH for 12 hours, listed as RD/IMT-4/34

With `CS(=O)(=O)O.Cc1ccc(NC(=O)c2ccc(CN3CCN(C)CC3)cc2)cc1Nc1nccc(-c2cccnc2)n1` [imatinib mesylate] the DSC ([1]; 60° C. for 48 hours) was “Complies”, the XRPD ([1]; 60° C. for 48 hours) was “Complies” and the DESCRIPTION [1, 4] was “Pale yellow”. For the same compound, the Purity [1, 4] was 99.44%, the “Single Max. impurity” value [1, 4] was 0.20% and the DESCRIPTION [1, 5] was “Cream coloured”. For the same compound, the Purity [1, 5] was 99.17%, the “Single Max. impurity” value [1, 5] was 0.30% and the DSC ([1]; 105° C. for 12 hours) was “Complies”. For the same compound, the XRPD ([1]; 105° C. for 12 hours) was “Complies”, the DESCRIPTION [1, 6] was “Pale yellow” and the Purity [1, 6] was 99.49%. The “Single Max. impurity” value [1, 6] was 0.17%, the DESCRIPTION [1, 7] was “Cream coloured” and the Purity [1, 7] was 99.18%. For the same compound, the “Single Max. impurity” value [1, 7] was 0.32%, the DSC [1, 8] was “Complies” and the XRPD [1, 8] was “Complies”. For the same compound, the DESCRIPTION [1, 9] was “Pale yellow”, the Purity [1, 9] was 99.45% and the “Single Max. impurity” value [1, 9] was 0.18%. For the same compound, the DESCRIPTION [1, 10] was “Cream coloured”, the Purity [1, 10] was 99.26% and the “Single Max. impurity” value [1, 10] was 0.33%. For the same compound, the DSC ([1]; UV −45° C. 75 RH for 12 hours) was “Complies”, the XRPD ([1]; UV −45° C. 75 RH for 12 hours) was “Complies” and the DESCRIPTION [1, 11] was “Pale yellow”. For the same compound, the Purity [1, 11] was 99.38%, the “Single Max. impurity” value [1, 11] was 0.19% and the DESCRIPTION [1, 12] was “Cream coloured”. For the same compound, the Purity [1, 12] was 99.18%, the “Single Max. impurity” value [1, 12] was 0.34% and the “polymorphic stability by DSC and XRPD evaluation” value ([1]; before and after stress study) was “polymorphically stable”. The “polymorphic identity under stress conditions” value ([1]; stress conditions such as milling or heating) was “retain the polymorphic identity”, the “level of impurities before and after stability study” value ([1]; stress: 60° C. 48 hours, 105° C. 12 hours, UV 45° C. at 75% RH 12 hours) was “no increase in the level of impurities” and the hygroscopicity [2] was “non-hygroscopic”. The “HPLC single maximum impurity content” value (Initial) was 0.23 wt %, the “HPLC total impurity content” value (Initial) was 0.50 wt % and the Water content (Initial) was 0.39 wt %. For the same compound, the “HPLC single maximum impurity content” value (after 6 months) was 0.11 wt %, the “HPLC total impurity content” value (after 6 months) was 0.33 wt % and the Water content (after 6 months) was 0.61 wt %. The “HPLC single maximum impurity content” value (after 12 months) was 0.15 wt %, the “HPLC total impurity content” value (after 12 months) was 0.41 wt % and the Water content (after 12 months) was 0.58 wt %. For the same compound, the stability on storage (storage at ambient temperature) was “stable chemically and polymorphically”.
In the case of `CS(=O)(=O)O.Cc1ccc(NC(=O)c2ccc(CN3CCN(C)CC3)cc2)cc1Nc1nccc(-c2cccnc2)n1` [alpha-crystalline form], the hygroscopicity [3] is given as “highly hygroscopic” and the stability [3] is given as “not stable”.
